In a melting point compilation (Tetko et al.):

| SMILES | melting point |
| --- | --- |
| CN(C)c1cccc(N(C)C)c1C#N | 71 to 73 °C |
| O=C1CCC2(CC1)OCCO2 | 74 to 76 °C |
| CCCCCc1ccc(-c2ccc(C#N)cc2)cc1 | 34 °C |
| CCC(CC)C(N)CC(=O)O (stereo not drawn) | 213 to 214 °C |
| O=C(O)C1CCC1 | -2 °C |
| C(#Cc1ccc(CCc2ccccc2)cc1)c1ccccc1 | 105 °C |
| CC1(C)CC(=O)OC(=O)C1 | 122 to 126 °C |
| Fc1c(F)c(F)c(P(c2ccccc2)c2c(F)c(F)c(F)c(F)c2F)c(F)c1F | 61.5 °C |
| CCCCCCCCCCCCCCCC(=O)OCCCC | 16.9 °C |
| CCCCCCCCCCCC=O | 44.5 °C |
| Cc1noc(-c2ccc(C=O)cc2)n1 | 133 to 135 °C |
| CC(=O)CC(C)=O | -23 °C |
| Nc1cc(F)c(F)c(F)c1F | 28 °C |
| CCC1C(C#N)=C(N)Oc2c1c(=O)oc1ccccc21 (stereo not drawn) | 233 to 237 °C |
| C=COCCCCCCCCCCCCCCCCCC | 30 °C |
| CCn1cc(C(=O)O)c(=O)c2cnc(N3CCNCC3)nc21 | 254 °C |
| C=CSC=C | 20 °C |
| CCCCC1C(=O)NC(=O)N(C2CCCCC2)C1=O (stereo not drawn) | 84 °C |
| CN(C)c1nc(-c2cccs2)cc(C(F)(F)F)c1C#N | 118 to 119 °C |
| CCOC(=O)c1sc(Cl)nc1C | 46 to 47 °C |

| SMILES | melting point |
| --- | --- |
| CC(C#N)c1ccccc1[N+](=O)[O-] (stereo not drawn) | 51 °C |
| CC1COc2ccccc2N1C(=O)C(Cl)Cl (stereo not drawn) | 108 °C |
| Cc1cc(C)c(OC(=O)C(F)(F)F)cc1OC(=O)C(F)(F)F | 121 °C |
| COC1=CC(=O)NC1 | 132 °C |
| O=CC(C=O)c1cnccn1 | 202 to 207 °C |
| NC(=S)NC1CCCCC1 | 162 °C |
| CCOOCC | -70 °C |
| CCCC(C1CCCCC1)C1CCCCC1 | -10.5 °C |
| CSc1nc(N)nc(-c2cccs2)n1 | 176 to 177 °C |
| CCCCCCCCCCCO | 19 °C |
| COc1cc(Br)c(CC#N)cc1OC | 87 to 89 °C |
| CCC(O)(CC)C(=O)O | 78 to 82 °C |
| CCS(=O)CC | 14 °C |
| Cc1ccc(C(=CCN2CCCC2)c2ccccn2)cc1 | 60 °C |
| CCC(CC)C(=O)O | -14 °C |
| CC(C)CC(=O)NC(C(=O)NC(C(=O)NC(CC(C)C)C(O)CC(=O)NC(C)C(=O)NC(CC(C)C)C(O)CC(=O)O)C(C)C)C(C)C (stereo not drawn) | 233 °C |
| O=NN(CC(c1ccccc1)c1ccccc1)CC(c1ccccc1)c1ccccc1 | 179 °C |
| CCCCCCC(O)CCC (stereo not drawn) | -11 °C |
| Nc1ccccc1CCCCc1ccccc1N | 74 °C |

The remaining lines, values ahead:

| melting point | SMILES |
| --- | --- |
| 246 °C | COC(=O)C(Cc1ccccc1)NC(=O)C(N)CC(=O)O (stereo not drawn) |
| 150 °C | CCNc1cc(=O)oc2ccccc12 |
| 201 to 203 °C | Cc1cc(C(F)(F)F)n2nc(N)c(/N=N/c3ccccc3)c2n1 |
| 212 °C | CC(=O)Nc1ccc(N=Nc2ccc(N)cc2)cc1 |
| 157 to 158 °C | O=C(CBr)c1cc(-c2ccc(Cl)cc2)no1 |
| 189 °C | CCCOC(=O)C1=C(C)NC(=O)NC1c1ccccc1O (stereo not drawn) |
| 160 °C | c1ccc2c(-c3cccc4ccccc34)cccc2c1 |
| 48 °C | COc1ccc(O)cc1C(C)(C)C |
| 107 °C | Cc1ccc(O)c(C(O)c2ccc(Br)cc2)c1 (stereo not drawn) |
| 235 °C | CC(C)c1nc2ccccc2[nH]1 |
| 111 to 113 °C | NNc1ncc(C(=O)OCc2ccc(Cl)cc2)c(C(F)(F)F)n1 |
| 120 °C | Cc1ccc(C(=O)C2=NOC3C(=O)N(c4ccc(O)cc4)C(=O)C23)cc1 (stereo not drawn) |
| 117 °C | NS(=O)(=O)c1ccc(SCCCO)cc1 |
| 122 to 123 °C | Cc1ccc(C(=O)C=Cc2ccc(-c3ccccc3)o2)o1 |
| 310 °C | Oc1cc(O)cc(-c2cc(O)cc(O)c2)c1 |
| 244 to 246 °C | Cc1nc2sc3c(c2c(=O)n1NC(=O)c1ccccc1Cl)CCCC3 |
| 116 °C | Nc1ccc(C=Cc2ccccc2)c(N)c1 |
| 31 to 32 °C | CC(c1ccc(OC(F)=C(F)F)cc1)(c1ccc(OC(F)=C(F)F)cc1)c1ccc(OC(F)=C(F)F)cc1 |
| 266 °C | Cc1cccc(C)c1NC(=O)c1ccc[nH]c1=O |
| 138 to 140 °C | Cc1nc(/C(C#N)=C\c2ccc(Cl)cc2Cl)sc1/N=N/c1ccc(F)cc1 |
| 213 °C | O=C(C1=NOC2C(=O)N(c3ccc(O)cc3)C(=O)C12)c1ccc([N+](=O)[O-])cc1 (stereo not drawn) |
| 192 to 193 °C | O=c1[nH]c2ccc(Cl)cc2o1 |
| 156 to 157 °C | O=C1CCc2cccc(O)c2C1 |
| 154 °C | CC(C)(C)NCC(O)c1ccc(O)c(CO)c1 (stereo not drawn) |
| 118 °C | O=C(O)CCCCc1ccc(O)cc1 |
| -6 °C | CCc1ccccc1-c1ccccc1 |
| 197 to 200 °C | Cc1cc(Sc2nnc(N)s2)c2ccccc2n1 |

| melting point | SMILES |
| --- | --- |
| 40 to 42 °C | CCOC(=O)CCc1ccc(O)cc1 |
| 29 to 32 °C | CCCCOc1ccc(CO)cc1 |
| 236 °C | NC(Cc1cc(I)c(Oc2ccc(O)c(I)c2)c(I)c1)C(=O)O (stereo not drawn) |
| 69 °C | CC(C)(C)c1ccc(OCC#N)cc1 |
| 95 °C | Brc1ccc2ccc3cccc4ccc1c2c34 |
| 115 to 117 °C | O=C(Nc1cccnc1Cl)c1ccccc1Cl |
| 88 °C | CC(=O)Nc1ccccc1C(=O)c1ccccc1 |
| 180 °C | CN1c2ccccc2C(C)(C)C12C=Cc1cc([N+](=O)[O-])ccc1O2 (stereo not drawn) |
| 255 to 257 °C | Cc1nnc(S)n1-c1ccc(OCc2ccccc2)cc1 |
| 53 °C | CC(=O)c1cc(F)cc(Cl)c1 |
| 143 °C | CCC(C(N)=O)n1nnc2ccccc21 (stereo not drawn) |
| 139 °C | NNC(=O)c1cccs1 |
| 30 to 36 °C | Cc1ccccc1C(=O)Cc1ccccc1C(=O)OC(C)(C)C |
| 118 to 119 °C | CCOC(=O)C(C#N)=C(S)Nc1ccccc1 |
| 135 °C | NS(=O)(=O)c1cc(Cl)ccc1F |
| 176 °C | COc1ccc(C=C2SC(=S)N(CNc3ccc([N+](=O)[O-])cc3)C2=O)cc1 |
| 146 °C | COc1cc2noc(-c3ccc(C)o3)c2cc1OC |
| 60 °C | Cc1ccc2[nH]ccc2c1 |
| 115 to 117 °C | CC1(C)CC(=O)c2cc(-c3ccccc3)n(Cc3ccc(Cl)cc3)c2C1 |
| 179 °C | Cc1ccc(NN=c2c(C)nc3ccccc3[nH]c2=O)cc1 |
| 184 to 186 °C | CN(C)c1cccc2oc3c(cnn3-c3ccccc3)c(=O)c12 |
| 33 to 38 °C | COC(=O)c1cccc(Cl)c1Cl |
| 212 to 215 °C | Nc1c(Br)cc(Br)c(Cl)c1C(=O)O |
| 276 °C | O=C(Nc1cccc2c1c(S(=O)(=O)O)cc1oc(-c3ccccc3)nc12)c1ccccc1 |
| 54 °C | Cc1ccc2cc(F)ccc2n1 |
| 222 to 223 °C | Nc1nnc(-c2ccccc2)c(Nc2ccc(Cl)cc2Cl)n1 |
| 56 °C | CC1CC(OC(=O)C(O)c2ccccc2)CC(C)(C)C1 (stereo not drawn) |
